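Five compound concentrations were applied to cells in 96-well plates for 48 hours; endpoints were derived by simple linear interpolation of the resulting dose-response curve. Here, GI50 denotes the concentration required for 50% inhibition of growth. TGI: total growth inhibition.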
What was measured:
Assay in all cases: growth of human tumour cells (NCI), 48 h
[1] = system: SR leukemia
[2] = system: SNB-19 CNS
[3] = system: HT29 colon
[4] = system: SK-MEL-5 melanoma
[5] = system: A549 NSCLC
[6] = system: OVCAR-4 ovarian
[7] = system: A498 renal
[8] = system: UO-31 renal
[9] = system: MDA-MB-435
[10] = system: DU-145 prostate

| Structure (SMILES) | TGI [1] [µM] | TGI [2] [µM] | TGI [3] [µM] | TGI [4] [µM] | TGI [5] [µM] | TGI [6] [µM] | TGI [7] [µM] | TGI [8] [µM] | GI50 [2] [µM] | GI50 [3] [µM] | GI50 [4] [µM] | TGI [9] [µM] | GI50 [5] [µM] | GI50 [6] [µM] | GI50 [7] [µM] | GI50 [9] [µM] | GI50 [8] [µM] | GI50 [10] [µM] | TGI [10] [µM] | GI50 [1] [µM] |
| --- | --- | --- | --- | --- | --- | --- | --- | --- | --- | --- | --- | --- | --- | --- | --- | --- | --- | --- | --- | --- |
| CCOP(=O)(OCC)C1=NC=CC=CC1n1c(-c2ccccc2)nn(CC)c1=O (centres undefined) | > 100 | > 100 | > 100 | > 100 | > 100 |  |  |  |  |  |  |  |  |  |  |  |  |  |  |  |
| N#CC1CC2(C(=O)C1=O)c1ccccc1-c1ccccc12 (centres undefined) | > 100 | > 100 | > 100 | > 100 | > 100 | > 100 | > 100 | > 100 |  |  |  |  |  |  |  |  |  |  |  |  |
| CCOC(=O)/C(=C\c1ccc[nH]1)C(=O)c1ccccc1 | > 100 | > 100 | > 100 | > 100 | > 100 | > 100 |  | > 100 |  |  |  |  |  |  |  |  |  |  |  |  |
| O=c1c2cccnc2ncn1CCN1CCCC1 | > 100 | > 100 | > 100 | > 100 | > 100 | > 100 |  | > 100 |  |  |  |  |  |  |  |  |  |  |  |  |
| CC/C=C/c1cc2cc[nH]c2c2c1C(C)C[C@@H]2C (some centres undefined) |  |  | 82.2 | 46.4 | > 100 |  | 32.7 | 69.6 |  |  |  |  |  |  |  |  |  |  |  |  |
| CSc1ncnc2c1CCN2 |  | > 100 | > 100 | > 100 | > 100 |  |  | > 100 | > 100 | > 100 | > 100 | 6.04 | > 100 |  |  |  |  |  |  |  |
| COc1ccc(N(/C=C/C(=O)C(F)(F)F)CC(=O)c2ccc(Cl)c(Cl)c2)cc1 |  |  | > 100 | 20.4 | 68 | > 100 | 22.2 | > 100 |  | 29.8 | 7 | 25.4 | 17.7 | 32 | 10.1 | 12.1 | 24.1 | 11.3 | 24.6 |  |
| Cc1nc(C(N)=S)sc1C(=O)C/C(=N/N)C(=O)Nc1ccc(Cl)cc1 | > 100 | > 100 | > 100 | > 100 | > 100 | > 100 |  | > 100 |  |  |  | > 100 |  |  |  |  |  |  |  |  |
| OCC(O)C(O)C(O)/C=N/Nc1nc2ccccc2nc1-c1ccccc1 (centres undefined) |  | > 100 | > 100 | > 100 | > 100 | 72.2 | > 100 | > 100 | > 100 | > 100 | 48.5 | > 100 | > 100 | 28.3 | > 100 | > 100 | > 100 | > 100 | > 100 |  |
| COc1cc2c(c(OC)c1OC)-c1ccc(OC)c(=O)cc1[C@@H](N(C)C=O)CC2 |  | > 100 | > 100 | 0.0401 | > 100 | > 100 | 0.665 | > 100 |  |  |  |  |  |  |  |  |  |  |  |  |
| COc1cc(/C=C(\OC(C)=O)c2ccc3c(c2)OCO3)cc(OC)c1OC | > 100 | > 100 | 61.9 | 24.5 | > 100 | 51.8 | 71.4 | 28.2 |  |  |  |  |  |  |  |  |  |  |  |  |
| CCC(C(=O)c1ccccc1)C(CCCC(=O)Nc1c(C)cccc1C)N=O (centres undefined) | > 100 | > 100 | > 100 | > 100 | > 100 | > 100 | > 100 | > 100 |  |  |  |  |  |  |  |  |  |  |  |  |
| Cc1ccc2c(c1)CNc1ccc(C)cc1CN2 | > 100 |  | > 100 | > 100 | > 100 | > 100 |  | > 100 |  |  |  |  |  |  |  |  |  |  |  |  |
| O=C(NCc1ccncc1)C1COc2cc(-c3cc(=O)c4ccccc4o3)ccc2O1 (centres undefined) | > 100 |  | > 100 | > 100 | > 100 | > 100 |  | > 100 |  |  |  |  |  |  |  |  |  |  |  |  |
| COc1ccc2c(c1)/C(=C/c1cc(OC)c(OC)c(OC)c1)C(=O)N2C | 3.28 | > 27.7 | > 88.1 | 12.6 | > 67.1 | > 77.5 | 5.92 | > 55.7 | 3.19 | 2.9 | 2.76 |  | 3.64 | 4.66 | 2.5 |  | 3.91 |  |  | 0.634 |
| CC(C)C(=O)/C=C/c1ccc(Cl)c(Cl)c1 | 56.8 | 28.5 | 43.8 | 28.8 | 49.2 | > 100 | 62.1 | 27.2 |  |  |  |  |  |  |  |  |  |  |  |  |
| Cc1ccc(Oc2ccc([N+](=O)[O-])cc2[N+](=O)[O-])c(C)c1 |  |  | 59.3 | 50 | > 100 | > 100 | > 100 | > 100 |  |  |  |  |  |  |  |  |  |  |  |  |
| CC(C)c1ccc(NC(=S)NC(=O)c2ccccc2)cc1 |  | > 100 | 32.4 | 27 | > 100 | 55.2 | 74.1 | 32.7 |  |  |  | 28.1 |  |  |  |  |  |  | 70.8 |  |
| C1COCCOCCOCCOCCO1.CC(=O)[CH-]C(C)=O.CC(=O)[CH-]C(C)=O.CC(=O)[CH-]C(C)=O.[V] |  | 32.6 | 37.4 | 12.8 | > 100 | 3.81 | 66.3 | 61.4 | 15.3 | 19.1 | 2.47 |  | 22.7 | 0.56 | 25 |  | 32.5 |  |  |  |
| N#Cc1c(N)nc(N2CCOCC2)c(C#N)c1-c1ccccc1Cl |  | > 100 | > 100 | > 100 | > 100 | 85.3 | 25.2 | 43.4 | 48.5 | 57 | 32.4 | > 100 | 66.5 | 14.5 | 2.28 | 80.2 | 14.5 | 93.4 | > 100 |  |
| c1ccc(COC2(OCc3ccccc3)CC3OC2C2NN=NC32)cc1 (centres undefined) |  |  | 46.5 | 32.3 | > 100 | 36.4 | > 100 | 99.2 |  |  |  |  |  |  |  |  |  |  |  |  |
| CCSc1nnc(-c2ccc3ccccc3c2O)n1-c1ccc(Cl)cc1 | > 100 | > 100 | > 100 | > 100 | > 100 | > 100 | > 100 | > 100 | 5.84 | 16 | 6.01 |  | 4.51 | 5.71 | > 100 |  | 3.31 | 13.1 | > 100 | 3.86 |
